Legend:
[1] = tested on: MDA-MB-231 cells; test: Clonogenic assay, MDA-MB-231; type: cell-based, human; conditions: for reduction of clonogenicity: MDA-MB-231, 50 μM, 48 h
Protocol: Afterward, the selected compounds 3a–d were assayed at 50 μM for 24 and 48 h in CAL-62 and MDA-MB-231 cells to assess their ability to impair the cell viability and colony formation in either normoxia or hypoxia-induced condition, the latter obtained by adding a 200 μM cobalt chloride solution, as described in previous reports[69] (Figure 8). Most cancer cells, mainly solid types, are known to have an altered metabolism due to hypoxia, a non-physiological level of oxygen tension, which contributes to therapy resistance by causing cellular quiescence.[70] Moreover, hypoxic cancer cells can induce several factors that lead to cell proliferation and colony formation.[71]
Cells were seeded in a 100 mm dish and, once at 80–90% confluence, treated as described in the Results and Discussion section. After 24 and 48 h, cells were collected, counted, and 500 cells plated in a 100 mm dish. After about 7 days for CAL62 and 10 days for MDA-MB-231, plates were washed with phosphate-buffered saline solution (PBS); (Merck; 79382), and clones were fixed with 4% formaldehyde solution in PBS (Merck; F8775) at room temperature for 15 min. After that, the dishes were washed with PBS, and clones stained for 5 min with 0.5% crystal violet (Merck; C0775). Finally, the plates were washed with distilled water and air-dried. After scanning each individual dish, the colonies were counted the following day.

[2] = tested on: acK68- and acK122-MnSOD in CAL-62 cells; test: Western blot of MnSOD acK68 and acK122 marks in CAL-62 cells; type: cell-based; conditions: 50 μM, 4 h, CAL-62
Protocol: K68-MnSOD acetylation promotes a transformation-permissive phenotype, leading to a chemotherapy-resistant breast cancer cell model using cisplatin and doxorubicin.[68] […] The specific SIRT3 inhibitor 3-TYP was utilized as negative control.
Breast cancer cell line MDA-MB-231, anaplastic thyroid cancer cell line CAL-62 and human keratinocytes HaCaT were purchased from ATCC and were cultured in RPMI 1640 medium (R0883 Sigma Aldrich-MERCK) (MDA-MB-231 and CAL-62) or DMEM medium (11965092, Gibco) supplemented with 10% fetal bovine serum (Sigma-Aldrich-MERCK, F9665), 2 mM glutamine (G7513; Sigma-Aldrich-MERCK), 100 units/mL penicillin and 0.1 mg/mL streptomycin (P0781; Sigma-Aldrich-MERCK). Adherent cells were detached by Trypsin–EDTA solution (TA049; Sigma-Aldrich-MERCK). Cells were maintained at 37 °C in humidified incubator with 5% CO2. Cells were treated with […] (CoCl2) (Merck; C8661) dissolved in distilled, sterile water for 24 h to induce hypoxia (200 μM). […]
Treated and untreated cells were collected and centrifuged at 3000 rpm for 5 min. […] Protein concentration was determined by the Bradford assay (Bio-Rad; 500-0205). […] After three more washes in PBST, the detection of the relevant protein was assessed by enhanced chemiluminescence (Lite Ablot TURBO, Euro-Clone; EMP012001). […]

Structure (SMILES): CCOC(=O)C1=CN(C(=O)c2cc(OC)cc(OC)c2)C=C(C(=O)OCC)C1c1ccccc1 [Compound 3d, Diethyl 1-(3,5-dimethoxybenzoyl)-4-phenyl-1,4-dihydropyridine-3,5-dicarboxylate]
- IC50 ([1]; Homo sapiens, MDA-MB-231, 48 h, normoxia, read-out: IC50 against colonies formation): ~2.2 µM
- reduction of clonogenicity ([1]; hypoxia): 95%
- reduction of clonogenicity ([1]; normoxia): 86%
- ratio acK68- or acK122-MnSOD/MnSOD [2]: decrease

Reference: publication PMC10388363, “Novel 1,4-Dihydropyridines as Specific Binders and Activators of SIRT3 Impair Cell Viability and Clonogenicity and Downregulate Hypoxia-Induced Targets in Cancer Cells” (Journal of Medicinal Chemistry, 2023)
